No end group written: not given here.
How the values were obtained:
Meth A = assay: Tumor rejection (immunization-challenge) assay; tumor growth AUC and tumor rejection score (TRS); format: in vivo, BALB/cJ mice; settings: BALB/cJ mice immunized twice, CTLA4 blockade
Protocol: Each line represents tumor growth in a single mouse (n = 5 mice per group). AUC for each group is plotted in the panel on the right. Data are presented as mean ± SD. P values were calculated using 1-way ANOVA test adjusted for multiple comparisons (Tukey’s multiple comparison test). c Several truncated versions of the 18-mer Ccdc85c^MUT peptide were tested in tumor rejection assay. BALB/cJ mice were immunized and tumor challenged. Each line represents tumor growth in a single mouse. Although mice were immunized with individual peptides, the data for multiple peptides are grouped into one with the composition of the peptides shown on the right. The tumor rejection data for individual peptides are shown in Supplementary Fig. 1. Tumor rejection score (TRS) for each neoepitope is shown in the yellow box, where five represents a complete tumor protection and zero means no tumor rejection. d On the left panel, total Area Under the Curve (AUC) scores for each group in B are plotted. […] Error bars represent standard deviation (SD). […] P values were calculated using 1-way ANOVA test adjusted for multiple comparisons. […] Matched peak lists for the “heavy” and “light” ions were extracted and monitored, while only single charge y ions were plotted. See Methods for details. f Predicted (by NetMHC4.0) and measured IC50 values of the binding of candidate precise neoepitopes of Ccdc85c^MUT to K^d are shown. […] The affinities of the MS/TRS predicted neoepitopes were also measured for D^d and L^d; measured affinities were below the level of detection.
The mutation is heterozygous and the un-mutated as well as the mutated reads are detected in the transcripts. […] All mice were challenged with the Meth A cells, and tumor rejection was monitored (Fig. 1b upper panel). […]
Area under the curve (AUC) is used as a tool to measure tumor growth. Briefly, AUC was calculated by selecting “Curves & Regression” and then “Area under curve” from the “analyze” tool, using the Prism 5.0 (GraphPad). […]

splenic CD8 T cells = assay: ELIspot for interferon γ of splenic CD8 T cells from immunized mice; format: cell-based, BALB/c mice; settings: spleens seven days after second immunization; in vitro stimulation with immunizing 18-mer, 10 µM
Text: BALB/c mice were immunized with 18-mer peptides containing Ccdc85c^MUT as well as Ccdc85c^WT as described in Methods. Spleens were harvested seven days after the second immunization and splenic CD8 T cells tested by ELIspot for interferon γ production in response to stimulation in vitro with the peptides used for immunization. […] Since the CD8 response detected in vitro was so modest, CD8 response as detected in vivo in the tumor microenvironment became our focus.
Supplementary Fig. 3. CD8 response to Ccdc85cMUT and Ccdc85cWT peptides. BALB/c mice were immunized twice at a weekly interval with 18-mer peptides containing Ccdc85cWT (left) or Ccdc85cMUT (right) as described in Methods. Spleens were harvested seven days after the second immunization and CD8 T cells stimulated in vitro with the peptides (10 µM concentration) used for immunization, as indicated. CD8 cells were analyzed for release of interferon g. Each dot represents a single mouse. The P values were calculated using two tailed t-test. Data are presented as mean values +/- SD. […]

H2-A^d = assay: MHC II cell-surface density assay, H2-A^d; format: cell-based, mouse; settings: NIH3T3 cells, flow cytometry 48 h after transduction; peptides adjusted to 12-mer with N-terminal glycines; MUT vs WT counterpart
Text: (§1) In order to determine if any peptides within Ccdc85c^MUT could be presented by MHC II molecules, we analyzed the interaction of H2-A^d and H2-E^d with […], […] and IRPFETKVK as well as their wild type counterparts, using a cell-surface density assay. In this assay, β-chains of H2-Ab1^d or H2-Eb1^d are expressed in fusion with the peptide of interest and the amount of cell-surface MHC II, as a measure of intrinsic stability of MHC II, is quantified in engineered conditions. The measured cell-surface MHC density correlates well with the actual affinity of the peptide to MHC II. […] This was observed when CD4 depletion was carried out during the priming phase alone (as in Supplementary Fig. 2b), or throughout the entire experiment including the effector phase (i.e. post tumor challenge).
(§2) MHC II-peptide binding analysis was conducted by cell-surface density assay[18] with modifications. […] Cell-surface expression of H2-A^d or H2-E^d and cytoplasmic expression of GFP in GFP^+ MHC^+ cells were measured by flow cytometry 48 h after the transduction, using the following antibodies: H2-A^d, anti-mouse I-A^d mAb with the dilution of 1:10, 20 μl per sample (39-10-8, BioLegend) or mouse IgG3 isotype control with the dilution of 1:100, 10 μl per sample (m078-3, clone 6A3, Medical & Biological Laboratories Co. Ltd.) and goat anti-mouse IgG3-PE with the dilution of 1:20, 15 μl per sample (sc-3767, Santa Cruz Biotechnology, Inc.); H2-E, anti-I-E^d mAb with the dilution of 1:40, 10 μl per sample (115002, 14-4-4 S, Thermo Fisher) or mouse IgG2a isotype control with the dilution of 1:10, 10 μl per sample (m076-3, clone 6H3, Medical & Biological Laboratories Co. Ltd.) and goat F(ab’)2 Anti-mouse Ig-PE with the dilution of 1:20, 20 μl per sample (1012-09, Southern Biotechnology Associates Inc.). The ratio of MHC MFI to GFP MFI (MHC/GFP) for each MHC II-peptide combination was calculated and normalized to the MHC/GFP for respective MHC II allele-G9 peptide. On each assay date, MHC/GFP for each MHC II-peptide combination was measured for three or four wells and their average was determined. […]

H2-E^d = assay: MHC II cell-surface density assay, H2-E^d; format: cell-based, mouse; settings: NIH3T3 cells, flow cytometry 48 h after transduction; peptides adjusted to 12-mer with N-terminal glycines; MUT vs WT counterpart
Text: as §1, §2

K^d = molecular target: T1, K^d (Mus musculus, UniProt P01902); assay: Measured peptide binding to K^d
T1 sequence (P01902 22-368): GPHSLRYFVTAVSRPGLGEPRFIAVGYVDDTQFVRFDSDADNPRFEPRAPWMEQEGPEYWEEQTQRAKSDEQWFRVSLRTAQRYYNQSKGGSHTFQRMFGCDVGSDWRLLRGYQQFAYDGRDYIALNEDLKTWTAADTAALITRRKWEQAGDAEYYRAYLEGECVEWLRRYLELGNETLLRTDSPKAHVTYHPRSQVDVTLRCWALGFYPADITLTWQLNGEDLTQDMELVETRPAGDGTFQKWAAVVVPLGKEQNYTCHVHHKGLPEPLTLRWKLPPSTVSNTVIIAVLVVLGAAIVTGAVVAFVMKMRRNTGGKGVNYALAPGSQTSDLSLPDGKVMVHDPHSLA
T1 sequence (P01887 21-119 partner): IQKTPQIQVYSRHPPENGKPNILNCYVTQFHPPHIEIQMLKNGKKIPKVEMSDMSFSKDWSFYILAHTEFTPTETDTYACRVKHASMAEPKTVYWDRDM
Protocol: Each line represents tumor growth in a single mouse (n = 5 mice per group). AUC for each group is plotted in the panel on the right. Data are presented as mean ± SD. P values were calculated using 1-way ANOVA test adjusted for multiple comparisons (Tukey’s multiple comparison test). c Several truncated versions of the 18-mer Ccdc85c^MUT peptide were tested in tumor rejection assay. BALB/cJ mice were immunized and tumor challenged. Each line represents tumor growth in a single mouse. Although mice were immunized with individual peptides, the data for multiple peptides are grouped into one with the composition of the peptides shown on the right. The tumor rejection data for individual peptides are shown in Supplementary Fig. 1. Tumor rejection score (TRS) for each neoepitope is shown in the yellow box, where five represents a complete tumor protection and zero means no tumor rejection. d On the left panel, total Area Under the Curve (AUC) scores for each group in B are plotted. […] Error bars represent standard deviation (SD). The P values corresponding to the comparison of TRS = 0 with TRSs 5.0, 4.0–4.5 and 3.0–3.3 were respectively <0.0001, <0.0001 and 0.0002. P values were calculated using 1-way ANOVA test adjusted for multiple comparisons. On the right, peptides with the highest and the lowest TRS are shown. e Targeted MS-based detection of TYIRPFETKVK and YIRPFETKVK among MHC I peptides eluted from BMDCs pulsed with the 18-mer Ccdc85c^MUT. Heavy labeled synthetic peptides were spiked into the peptide samples; the labeled amino acid is marked with a bold character and the mutation is in red. Matched peak lists for the “heavy” and “light” ions were extracted and monitored, while only single charge y ions were plotted. See Methods for details. f Predicted (by NetMHC4.0) and measured IC50 values of the binding of candidate precise neoepitopes of Ccdc85c^MUT to K^d are shown. […] The affinities of the MS/TRS predicted neoepitopes were also measured for D^d and L^d; measured affinities were below the level of detection.

D^d = assay: Measured peptide binding to D^d; parameters: species or system mouse
Protocol: (§3) Each line represents tumor growth in a single mouse (n = 5 mice per group). AUC for each group is plotted in the panel on the right. Data are presented as mean ± SD. P values were calculated using 1-way ANOVA test adjusted for multiple comparisons (Tukey’s multiple comparison test). c Several truncated versions of the 18-mer Ccdc85c^MUT peptide were tested in tumor rejection assay. BALB/cJ mice were immunized and tumor challenged. Each line represents tumor growth in a single mouse. Although mice were immunized with individual peptides, the data for multiple peptides are grouped into one with the composition of the peptides shown on the right. The tumor rejection data for individual peptides are shown in Supplementary Fig. 1. […] P values were calculated using 1-way ANOVA test adjusted for multiple comparisons. […] Matched peak lists for the “heavy” and “light” ions were extracted and monitored, while only single charge y ions were plotted. See Methods for details. f Predicted (by NetMHC4.0) and measured IC50 values of the binding of candidate precise neoepitopes of Ccdc85c^MUT to K^d are shown. […] The affinities of the MS/TRS predicted neoepitopes were also measured for D^d and L^d; measured affinities were below the level of detection.

L^d = assay: Measured peptide binding to L^d; parameters: species or system mouse
Protocol: as §3

Sequence	tumor rejection (in words) (Meth A)	CD8 response (interferon γ ELIspot) (splenic CD8 T cells)	binding of Ccdc85c^MUT versus Ccdc85c^WT to H2-IA (MHC/GFP normalized to G9) (H2-A^d)	binding of Ccdc85c^MUT versus Ccdc85c^WT to H2-IE (MHC/GFP normalized to G9) (H2-E^d)	IC50 (K^d; assay kind not described) [nM]	measured affinity for D^d (D^d)	measured affinity for L^d (L^d)	measured affinity for K^d (in words) (K^d)
DPSSTYIRPLETKVKLLD [un-mutated peptide, un-mutated 18-mer peptide of Ccdc85c]	failed to elicit protection	no CD8 response	–	–	–	–	–	–
IRPFETKVK [truncated version of the 18-mer Ccdc85c^MUT peptide]	–	–	No significant difference	No significant difference	–	–	–	–
TYIRPFETKV [TYIRPFETKV]	–	–	–	–	247	–	–	–
TYIRPFETKVK	–	–	No significant difference	No significant difference	–	very low or undetectable	very low or undetectable	very low or undetectable
YIRPFETKVK	–	–	No significant difference	No significant difference	–	very low or undetectable	very low or undetectable	very low or undetectable
